How the values were obtained:
PC3 [1] = test: In vitro antiproliferative assay (MTT assay), prostate cancer cell line; type: cell-based; settings: Homo sapiens, PC-3, 48 h, MTT assay, prostate cancer PC3, 48 hrs drug incubation
Method: (§1) MTT assay is a simple and sensitive assay where, metabolic reducing activity of the cells is measured. The increase of this activity in time is taken as a parameter of cell growth. If treatment with a drug impairs this increase, the action is a consequence of growth inhibition, cell killing or both. […] All cell lines were cultured in a 37° C. incubator with a 5% CO2 environment. Compounds were dissolved in DMSO with a concentration of 0.1M (stock solution). Cells were seeded into 96-well plates at suitable plating efficiency.
(§2) Following plating efficiencies were standardized for MTT assay:
(§3) In the MTT procedure, the cells were plated in 96 well plates as per predetermined plating efficiency (Table1). The plates were then incubated for 24 hrs in 5% CO2 atmosphere at 37° C. Appropriate concentrations of the drugs were then added to the plate and further incubation was carried out for 48 hrs (in 5% CO2 atmosphere at 37° C.). The assay plate was then centrifuged twice at 3000 rpm for 3 mins and supernatant was then discarded. 100 ul of MTT solution (0.5 mg/ml) was then added to each well of the plate and it was further incubated for 4 hrs (in 5% CO2 atmosphere at 37° C.) Following 4 hr incubation, the plate was then centrifuged twice, and supernatant was aspirated off very carefully. 200 ul of DMSO was then added to each well to solubilize. MTT crystals and mixed well by shaking the plate. XY graph of log percent viability was then plotted against log drug concentration.

Human lymphocytes = test: Lymphocyte assay (MTT on normal cells); type: cell-based; settings: human peripheral blood lymphocytes, MTT procedure; for IC50: Lymphocyte
Method: Human lymphocytes were isolated from the peripheral blood. A pure population of lymphocytes was obtained based on differential centrifugation, in which diluted defibrinated blood was layered on a solution of sodium diatrizoate and polysucrose (HiSep LSM 1077) and centrifuged at low speeds for 30 mins.
Procedure: The separation of lymphocytes from fresh defibrinated blood was performed by the procedure described below: • 1. Diluted defibrinated fresh blood was overlaid gradually on (HiSeP LSM1077) and centrifuged at low speed for 30 mins. • 2. The lymphocyte layer (the buffy coat) was carefully removed in a new collection tube. • 3. The buffy coat was given another wash, by the diluent buffer Dulbecco's phosphate buffered saline (D.P.B.S) • 4. The supernatant was discarded and the pellet was resuspended in D.P.B.S. • 5. The viability of cells was checked by Haemocytometer. • 6. Cells with purity and viability of more than 95% were taken for the experiment. • 7. Purified lymphocytes were diluted at a concentration of 0.7 million/ml with sterile D.P.B.S and MTT procedure was performed exactly as described earlier.

MDAMB231 [2] = test: Soft agar colony-formation assay, breast cancer; type: cell-based; settings: for anticancer activity in comparison with cisplatin, soft agar, breast cancer cell line: FIG. 51, MDAMB231; for IC50: Homo sapiens, MDA-MB-231, 168 h, Soft Agar Assay, 1 week, Alamar Blue
Method: (§4) The Soft Agar Colony-formation Assay is an anchorage-independent growth assay in soft agar, which is one of the most stringent assays for detecting malignant transformation of cells. For this assay, malignant cells are cultured with appropriate controls in soft agar medium for 1-2 weeks. Following this incubation period, formed colonies can either be analyzed morphologically using cell stain and quantifying the number of colonies formed.
(§5) Briefly, for Soft Agar Assay a mixture of 50 ul of 2× medium (taken appropriately as per cell line) and 50 ul of 1.2% Bacto Agar were plated on to each well of 96 well micro titer assay plate. 10 ul of cells (of specific plating efficiency pre standardized for respective cell line) were mixed with 20 ul of 2× medium and 30 ul of 0.8% of Bacto Agar and 1.6 ul of drug (of appropriate concentration) in a vial and transferred to the solidified pre layers of the assay plates. The cells were then allowed to grow and form colonies at 37° C. and 5% CO2 for 1 week. An intermittent feeding with 50 ul of appropriate 2× medium was performed after 3 days of experimental set up. 16 ul of Alamar Blue (1.5 mg/ml) was then added to all the wells to quantify the developed colonies. The plates were incubated for 24 hrs at 37° C. Absorbance was then measured at 630 nm. XY graph of log Percent viability was then plotted against log drug concentration.
(§6) Following plating efficiencies were standardized for Soft Agar Assay: […]

PC3 [3] = test: In vitro sphere-forming assay (cancer stem cells), Prostosphere media; settings: for viability at 0.0025 µM / viability at 0.025 µM / viability at 0.25 µM / viability at 2.5 µM / viability at 25 µM: Homo sapiens, PC-3, read-out: % Viability of spheres (PC3); for 3D sphere count of PC3: Prostosphere media, 2000 cells/well, n = 6 ± S.D
PC3 [4] = test: Soft agar colony-formation assay, prostate cancer; type: cell-based; settings: for anticancer activity in comparison with cisplatin, soft agar, prostate cancer cell line: FIG. 52, PC3; for IC50: Homo sapiens, PC-3, 168 h, Soft Agar Assay, 1 week, Alamar Blue
Method: as §4, §5, §6

MDAMB231 [5] = test: In vitro antiproliferative assay (MTT assay), breast cancer cell line; type: cell-based; settings: Homo sapiens, MDA-MB-231, 48 h, MTT assay, breast cancer MDAMB231, 48 hrs drug incubation
Method: as §1, §2, §3

MDAMB231 [6] = test: In vitro sphere-forming assay (cancer stem cells), Mammosphere media; settings: for viability at 0.0025 µM / viability at 0.025 µM / viability at 0.25 µM / viability at 2.5 µM / viability at 25 µM: Homo sapiens, MDA-MB-231, read-out: % Viability of spheres (MDAMB231); for 3D sphere count of MDAMB231: Mammosphere media, 2000 cells/well, n = 6 ± S.D

SMILES | IC50 (PC3 [1]) | IC50 (MDAMB231 [2]) | IC50 (PC3 [4]) | IC50 (MDAMB231 [5]) | anticancer activity in comparison with cisplatin, soft agar, breast cancer cell line (MDAMB231 [2]) | viability at 0.0025 µM (PC3 [3]) | viability at 0.025 µM (PC3 [3]) | viability at 0.25 µM (PC3 [3]) | viability at 2.5 µM (PC3 [3]) | viability at 25 µM (PC3 [3]) | 3D sphere count of PC3 (PC3 [3]; drug 0.0025 uM) | 3D sphere count of PC3 (PC3 [3]; drug 0.025 uM) | 3D sphere count of PC3 (PC3 [3]; drug 0.25 uM) | 3D sphere count of PC3 (PC3 [3]; drug 2.5 uM) | 3D sphere count of PC3 (PC3 [3]; drug 25 uM) | anticancer activity in comparison with cisplatin, soft agar, prostate cancer cell line (PC3 [4]) | viability at 0.0025 µM (MDAMB231 [6]) | viability at 0.025 µM (MDAMB231 [6]) | viability at 0.25 µM (MDAMB231 [6]) | viability at 2.5 µM (MDAMB231 [6]) | also measured
COc1ccc(NC2=CC(=O)c3c(OCCCCN4CCOCC4)cccc3C2=O)cc1OC [Formula 41] | 2.73 µM | 1.63 µM | 2.67 µM | 3.06 µM | higher anticancer activity in comparison with cisplatin | 85% | 72% | 54% | 46% | 27% | 74(±4) | 63(±3) | 47(±5) | 40(±4) | 24(±4) | higher anticancer activity in comparison with cisplatin | 86% | 70% | 52% | 34% | Activity on Lymphocytes (IC50) (Human lymphocytes): No activity; viability at 25 µM (MDAMB231 [6]): 19%; 3D sphere count of MDAMB231 (MDAMB231 [6]; drug 0.0025 uM): 66(±4); 3D sphere count of MDAMB231 (MDAMB231 [6]; drug 0.025 uM): 54(±4); 3D sphere count of MDAMB231 (MDAMB231 [6]; drug 0.25 uM): 40(±3); 3D sphere count of MDAMB231 (MDAMB231 [6]; drug 2.5 uM): 26(±3); 3D sphere count of MDAMB231 (MDAMB231 [6]; drug 25 uM): 15(±3)
O=C1C=C(OCCCCCCN2CCOCC2)C(=O)c2ccccc21 [Formula 68] | 4.73 µM | 2.37 µM | 2.53 µM | 3.18 µM | higher anticancer activity in comparison with cisplatin | 62% | 55% | 41% | 31% | 24% | 54(±4) | 48(±3) | 36(±3) | 27(±2) | 21(±2) | higher anticancer activity in comparison with cisplatin | 62% | 53% | 47% | 39% | IC50 (Human lymphocytes): 5.58 µM; viability at 25 µM (MDAMB231 [6]): 32%; 3D sphere count of MDAMB231 (MDAMB231 [6]; drug 0.0025 uM): 54(±2); 3D sphere count of MDAMB231 (MDAMB231 [6]; drug 0.025 uM): 47(±2); 3D sphere count of MDAMB231 (MDAMB231 [6]; drug 0.25 uM): 39(±3); 3D sphere count of MDAMB231 (MDAMB231 [6]; drug 2.5 uM): 33(±2); 3D sphere count of MDAMB231 (MDAMB231 [6]; drug 25 uM): 27(±2)
O=C1C=C(OCCCCN2CCOCC2)C(=O)c2ccccc21 [Formula 67] | 4.11 µM | 3.17 µM | 2.21 µM | 3.09 µM | higher anticancer activity in comparison with cisplatin | 70% | 64% | 51% | 44% | 36% | 61(±5) | 56(±3) | 45(±3) | 39(±2) | 32(±3) | higher anticancer activity in comparison with cisplatin | 80% | 69% | 56% | 48% | IC50 (Human lymphocytes): 5.15 µM; viability at 25 µM (MDAMB231 [6]): 37%; 3D sphere count of MDAMB231 (MDAMB231 [6]; drug 0.0025 uM): 67(±2); 3D sphere count of MDAMB231 (MDAMB231 [6]; drug 0.025 uM): 58(±3); 3D sphere count of MDAMB231 (MDAMB231 [6]; drug 0.25 uM): 47(±5); 3D sphere count of MDAMB231 (MDAMB231 [6]; drug 2.5 uM): 40(±5); 3D sphere count of MDAMB231 (MDAMB231 [6]; drug 25 uM): 31(±2)

Continued, in another order:

IC50 (PC3 [1]) | IC50 (MDAMB231 [2]) | IC50 (PC3 [4]) | IC50 (MDAMB231 [5]) | SMILES | anticancer activity in comparison with cisplatin, soft agar, breast cancer cell line (MDAMB231 [2]) | viability at 0.0025 µM (PC3 [3]) | viability at 0.025 µM (PC3 [3]) | viability at 0.25 µM (PC3 [3]) | viability at 2.5 µM (PC3 [3]) | viability at 25 µM (PC3 [3]) | 3D sphere count of PC3 (PC3 [3]; drug 0.0025 uM) | 3D sphere count of PC3 (PC3 [3]; drug 0.025 uM) | 3D sphere count of PC3 (PC3 [3]; drug 0.25 uM) | 3D sphere count of PC3 (PC3 [3]; drug 2.5 uM) | 3D sphere count of PC3 (PC3 [3]; drug 25 uM) | anticancer activity in comparison with cisplatin, soft agar, prostate cancer cell line (PC3 [4]) | viability at 0.0025 µM (MDAMB231 [6]) | viability at 0.025 µM (MDAMB231 [6]) | viability at 0.25 µM (MDAMB231 [6]) | viability at 2.5 µM (MDAMB231 [6]) | also measured
0.743 µM | 3.72 µM | 0.6 µM | 1.01 µM | CCN(CC)CCNC(=O)COc1cccc2c1C(=O)C=C(Nc1ccc(OC)cc1)C2=O [Formula 72] | higher anticancer activity in comparison with cisplatin | 81% | 63% | 46% | 36% | 16% | 65(±3) | 51(±3) | 37(±3) | 29(±2) | 13(±3) | higher anticancer activity in comparison with cisplatin | 84% | 67% | 48% | 33% | IC50 (Human lymphocytes): 33 µM; viability at 25 µM (MDAMB231 [6]): 19%; 3D sphere count of MDAMB231 (MDAMB231 [6]; drug 0.0025 uM): 60(±3); 3D sphere count of MDAMB231 (MDAMB231 [6]; drug 0.025 uM): 48(±3); 3D sphere count of MDAMB231 (MDAMB231 [6]; drug 0.25 uM): 34(±3); 3D sphere count of MDAMB231 (MDAMB231 [6]; drug 2.5 uM): 24(±2); 3D sphere count of MDAMB231 (MDAMB231 [6]; drug 25 uM): 14(±3)
3.55 µM | 1.79 µM | 3.31 µM | 1.35 µM | O=C1C(Nc2ccc3c(c2)OCO3)=CC(=O)c2c(OCC(=O)N3CCOCC3)cccc21 [Formula 71] | higher anticancer activity in comparison with cisplatin | 95% | 65% | 52% | 37% | 20% | 65(±5) | 53(±4) | 44(±4) | 28(±3) | 11(±2) | higher anticancer activity in comparison with cisplatin | 79% | 64% | 53% | 34% | IC50 (Human lymphocytes): 25.2 µM; viability at 25 µM (MDAMB231 [6]): 13%; 3D sphere count of MDAMB231 (MDAMB231 [6]; drug 0.0025 uM): 65(±5); 3D sphere count of MDAMB231 (MDAMB231 [6]; drug 0.025 uM): 53(±4); 3D sphere count of MDAMB231 (MDAMB231 [6]; drug 0.25 uM): 44(±4); 3D sphere count of MDAMB231 (MDAMB231 [6]; drug 2.5 uM): 28(±3); 3D sphere count of MDAMB231 (MDAMB231 [6]; drug 25 uM): 11(±2)
